Where “and” joins values, the source holds several entries; their conditions need not be identical. Equal entries are not always repeated. Where two headings read alike, the source gives them in different places. Marks after values point to notes of the source that are not given here.
Tests used:
[1] = cited from earlier work
[2] = Optical properties: absorption and fluorescence emission spectra; type: physicochemical
[3] = Light fastness test: change of absorbance with time under the light of daily life; type: physicochemical; conditions: acetonitrile
Description: An experiment testing the light fastness of fluorescent compound 8 and Cy7 (trade name, 1-[3-(4-monomethoxytrityloxy)propyl]-1′-[3-[(2-cyanoethyl)-(N,N-diisopropyl)phosphoramidityl]propyl]-3,3,3′,3′-tetramethylindotricarbocyanine chloride) was carried out.
Fluorescent compound 8 and Cy7 (trade name) were respectively dissolved in acetonitrile to a concentration attaining an absorbance of 0.1. The solutions were left to stand under the same conditions (more specifically, under the light of daily life without light shading, and the absorbance was measured every day (or every other day). The change with time of the measured absorbance was graphed taking the relative absorbance (taking the absorbance before leaving to stand as 100%) along the ordinate and taking the days along the abscissa.

[4] = CHCl3, reference N,N′-bis(1-hexylheptyl)-perylene dye (Φ=1.00 in CH2Cl2)
[5] = CHCl3, reference 3,3′-diethyl-dithiazylcarbocyanine, excitation 650 nm, containing error of 10%
[6] = MeOH, reference 3,3′-diethyl-dithiazylcarbocyanine, excitation 650 nm, containing error of 10%

| Molecule | fwhm (full width at half maximum height) ([2]; MeOH) | λabs (maximum absorption wavelength) ([2]; MeOH) | λflu (maximum fluorescence wavelength) ([2]; MeOH) | fwhm (full width at half maximum height) ([2]; CHCl3) | λabs (maximum absorption wavelength) ([2]; CHCl3) | λflu (maximum fluorescence wavelength) ([2]; CHCl3) | shift of maximum absorption wavelength to longer wavelength compared with boron dipyrromethene (R1=R3=R5=R7=Me) [2] | shift of maximum absorption wavelength to longer wavelength compared with fluorescent compound 2 [2] | other results |
| --- | --- | --- | --- | --- | --- | --- | --- | --- | --- |
| 1-[3-(4-monomethoxytrityloxy)propyl]-1′-[3-[(2-cyanoethyl)-(N,N-diisopropyl)phosphoramidityl]propyl]-3,3,3′,3′-tetramethylindodicarbocyanine chloride [Cy5, reference compound] | 29 nm | 648 nm | 670 nm |  |  |  |  |  | Φ (fluorescence quantum yield) ([1]; the value in PBS obtained from Amersham Biosciences): 0.27^a; ε (molar extinction coefficient) ([2]; MeOH): 250,000 M^−1cm^−1 |
| CCN1C(=CC=Cc2sc3ccccc3[n+]2CC)Sc2ccccc21 [3,3′-diethyl-dithiazylcarbocyanine] |  |  |  |  |  |  |  |  | Φ of reference dye ([1]; in MeOH): 0.33 |
| COc1ccc(C(OCCC[N+]2=C(C=CC=CC=CC=C3N(CCCOP(OCCC#N)N(C(C)C)C(C)C)c4ccccc4C3(C)C)C(C)(C)c3ccccc32)(c2ccccc2)c2ccccc2)cc1.[Cl-] (centres unmarked) [Cy7, 1-[3-(4-monomethoxytrityloxy)propyl]-1′-[3-[(2-cyanoethyl)-(N,N-diisopropyl)phosphoramidityl]propyl]-3,3,3′,3′-tetramethylindotricarbocyanine chloride] |  |  |  |  |  |  |  |  | light fastness (in words) ([3]; light of daily life, 1 week): very poor; relative absorbance retained (absorbance before leaving to stand as 100%) ([3]; under the light of daily life without light shading, after 1 week): ≤ 10% |
| CCCCC(CCCC)Oc1cc(C)c(C2=C3C=c4sc(C)cc4=[N+]3[B-](F)(F)n3c2cc2sc(C)cc23)c(C)c1 [Fluorescent Compound 3] |  |  |  | 20 nm | 586 nm | 596 nm |  |  | ε (molar extinction coefficient) ([2]; CHCl3): 170,000 M^−1cm^−1; Φ (fluorescence quantum yield) [2, 4]: 0.39 |
| CCCCC(CCCC)Oc1cc(C)c(C2=C3C=c4oc(-c5ccc(OC)cc5)cc4=[N+]3[B-](F)(F)n3c2cc2oc(-c4ccc(OC)cc4)cc23)c(C)c1 [Fluorescent Compound 5] | 29 nm | 664 nm | 679 nm | 28 nm | 673 nm | 685 nm | about 170 nm | about 90 nm | ε (molar extinction coefficient) ([2]; CHCl3): 190,000 M^−1cm^−1; Φ (fluorescence quantum yield) [2, 4]: 0.68; ε (molar extinction coefficient) ([2]; MeOH): 200,000 M^−1cm^−1; Φ (fluorescence quantum yield) ([2]; MeOH, reference N,N′-bis(1-hexylheptyl)-perylene dye (Φ=1.00 in CH2Cl2)): 0.63; fwhm (full width at half maximum height) ([2]; THF): 27 nm; ε (molar extinction coefficient) ([2]; THF): 190,000 M^−1cm^−1; λabs (maximum absorption wavelength) ([2]; THF): 669 nm; λflu (maximum fluorescence wavelength) ([2]; THF): 680 nm; Φ (fluorescence quantum yield) ([2]; THF, reference N,N′-bis(1-hexylheptyl)-perylene dye (Φ=1.00 in CH2Cl2)): 0.67; fwhm, summary in text of the values in Table 1 ([2]; all solvents of Table 1): about 30 nm |
| COc1ccc(-c2cc3c(o2)=CC2=Cc4cc5oc(-c6ccc(OC)cc6)cc5n4[B-](F)(F)[N+]=32)cc1 [Fluorescent Compound 6] | 26 nm | 659 nm | 672 nm | 24 nm | 683 nm and 673 nm | 683 nm | about 170 nm | about 90 nm | ε (molar extinction coefficient) ([2]; CHCl3, containing error of 10% (Table 4)): 240,000 M^−1cm^−1; Φ (fluorescence quantum yield) [2, 5]: 0.69; Φ (fluorescence quantum yield) [2, 6]: 0.58; fwhm (full width at half maximum height) ([2]; THF): 24 nm; λabs (maximum absorption wavelength) ([2]; THF): 665 nm; λflu (maximum fluorescence wavelength) ([2]; THF): 674 nm; Φ (fluorescence quantum yield) ([2]; THF, reference 3,3′-diethyl-dithiazylcarbocyanine, excitation 650 nm, containing error of 10%): 0.63 |
| COc1ccc(OC)c(-c2cc3c(o2)=CC2=Cc4cc5oc(-c6cc(OC)ccc6OC)cc5n4[B-](F)(F)[N+]=32)c1 [Fluorescent Compound 7] | 28 nm | 662 nm | 674 nm | 24 nm | 688 nm and 678 nm | 688 nm | about 170 nm | about 90 nm | Φ (fluorescence quantum yield) [2, 5]: 0.51; Φ (fluorescence quantum yield) [2, 6]: 0.54 |

Reference: US8193350B2, “Fluorescent compound and labeling agent comprising the same” (Keio University, priority 2006, dated 2012)
